Laboratory results reported in patent US20110028561A1, “PROTECTION OF NEURAL RETINA BY REDUCTION OF ROD METABOLISM” (CHILDREN'S MEDICAL CENTER CORPORATION, priority 2008, published 2011).
Entries after “also recorded” stand apart in the source; their conditions may differ.

What was measured:
[1] = tested on: rats with oxygen-induced retinopathy (OIR); test: Electroretinography in rats with oxygen-induced retinopathy (Example 1); assay type: in vivo, rat (Sprague-Dawley)
From the text: Rats with oxygen-induced retinopathy (OIR) are a common model of human retinopathy of prematurity (ROP). Both OIR and ROP are characterized by abnormal retinal vasculature and by lasting dysfunction of the neural retina. Recent findings in OIR rats imply a causal role for the rods in the ROP disease process. However, experimental manipulation of rod function is necessary to establish this role conclusively. The retinoid composition N-Retinylacetamide (all trans), of chemical composition C22H33NO “the drug” was administered in the rat OIR model of ROP.
OIR was induced in four litters of Sprague-Dawley pups (N=24) by exposure to alternating periods of 50% and 10% oxygen from the day of birth (P0) to P14. The light cycle was 12 hr light (10-30 lux) and 12 hr dark; the light-to-dark transition coincided with each oxygen alternation. For 15 days beginning P7, within one hour of this transition, the first and fourth litters were administered 6 mg/kg drug IP; the second and third litters received only vehicle. At P20-22, when marked retinal vascular abnormality is generally observed, electroretinograms were recorded and receptor and post-receptor function evaluated. Treatment effects were evaluated by ANOVA.

[2] = tested on: rats with oxygen-induced retinopathy (OIR); test: ERG of rod and rod-mediated neural function in the dark-adapted retina of OIR rats (Example 2); assay type: in vivo, rat (Sprague-Dawley); settings: for magnitude of the rod response (Rmp3): p<0.001, most markedly at P30-32, vs vehicle; for recovery from phototransduction, latency to 50% recovery τ: double-flash paradigm
Protocol: (§1) Retinopathy was induced in Sprague-Dawley pups (N=46) by exposing them to alternating 24 hour periods of 50±1% and 10±1% oxygen from the day of birth to postnatal day (P) 14 as shown in FIG. 1. The light cycle was controlled at 12 hours 10-30 lux and 12 hours dark, except during test days when constant darkness was maintained. The light-to-dark transition was timed to coincide with each oxygen alternation. For two weeks, beginning on P7, during this transition, the first and fourth litters were injected intraperitoneally with 6 mg*kg-1 Ret-NH2; the second and third litters were administered an equivalent volume of vehicle (20% dimethyl sulfoxide, DMSO) alone. The injection schedule was designed to continue over the age range that begins with the onset of rapid increase in the rhodopsin content of the retina and lasts until rhodopsin content exceeds 50% of its adult amount (A. B. Fulton, and B. N. Baker, Invest Ophthalmol Vis Sci (1984) 25:647). […] The rats were assessed following a longitudinal design with tests at P20-22, P30-32, and P60-62. These dates were selected because they capture the height of vascular abnormality, a period of marked recovery, and an adult age, respectively (J. D. Akula, et al., Invest Ophthalmol Vis Sci (2007) 48:4351). At each test age, we studied the function of the neural retina and the morphology of the retinal vasculature using noninvasive techniques.
Shortly (0-2 days) after the final dose, the effects of the drug were assessed on the neural retina by electroretinography (ERG). The timing and intensity of the stimuli, which was designed to assess rod photoreceptor and rod-mediated post-receptor neural function, were under computer control. Two sets of experiments were performed. In the first, rod and rod-mediated neural function in the dark-adapted retina were assessed. In the second, the recovery of the rod photoreceptor from a bright, rhodopsin-bleaching stimulus was assessed. Each set of experiments was performed on approximately half of the subjects from each litter.
Sample traces were recorded these from a P30-32 VCM-treated rat; the sample records in panels D, E, and G were recorded in the same session. Characteristics of the rod photo-response were estimated from the ERG by fitting the Hood and Birch (D. C. Hood, and D. G. Birch, Vis Neurosci (1992) 8:107) formulation of the Lamb and Pugh (T. D. Lamb, and E. N. Pugh, Jr., J Physiol (1992) 449:719; E. N. Pugh, Jr., and T. D. Lamb, Biochim Biophys Acta (1993) 1141:111) model of the biochemical processes involved in the activation of photo-transduction to the a-wave:
P3(i,t)=Rmp3·(1−exp(−½·i·S·(t−td)^2))
In this equation, i is the intensity of the flash (R*) and t is elapsed time (seconds). The free parameters in the model, Rmp3, S, and td, were ensemble fitted using a square error minimization routine. Rmp3 is the amplitude (μV) of the saturated rod response; it is proportional to the magnitude of the dark current and depends upon the number of channels available for closure by light in the ROS (T. D. Lamb, and E. N. Pugh, Jr., J Physiol (1992) 449:719; E. N. Pugh, Jr., and T. D. Lamb, Biochim Biophys Acta (1993) 1141:111). S is a sensitivity (R*-1*sec-2) parameter that is related to the amplification constant, A, which summarizes the kinetics of the series of processes initiated by the photoisomerization of rhodopsin and resulting in closure of the channels in the plasma membrane of the photoreceptor. td is a brief delay (sec). Fitting of the model was restricted to the leading edge of the a-wave.
Following the study of the activation of phototransduction, deactivation of phototransduction was studied in the same rats using a double-flash paradigm. The time course of the rod response was derived to a green conditioning flash (CF) producing approximately 75 R*. This green flash, while producing an a-wave less than half of the saturated rod response, was nevertheless sufficient to fully suppress the dark current. […]

[3] = tested on: rats with oxygen-induced retinopathy (OIR); test: Recovery of the rod dark current from a rhodopsin-bleaching stimulus in OIR rats (Example 2); assay type: in vivo, rat (Sprague-Dawley); settings: 30 second bleaching exposure, 6 mg/kg IP, vs vehicle, t50 often extrapolated
Protocol: Retinopathy was induced in Sprague-Dawley pups (N=46) by exposing them to alternating 24 hour periods of 50±1% and 10±1% oxygen from the day of birth to postnatal day (P) 14 as shown in FIG. 1. The light cycle was controlled at 12 hours 10-30 lux and 12 hours dark, except during test days when constant darkness was maintained. The light-to-dark transition was timed to coincide with each oxygen alternation. For two weeks, beginning on P7, during this transition, the first and fourth litters were injected intraperitoneally with 6 mg*kg-1 Ret-NH2; the second and third litters were administered an equivalent volume of vehicle (20% dimethyl sulfoxide, DMSO) alone. […] The rats were assessed following a longitudinal design with tests at P20-22, P30-32, and P60-62. […]
Shortly (0-2 days) after the final dose, the effects of the drug were assessed on the neural retina by electroretinography (ERG). […] In the first, rod and rod-mediated neural function in the dark-adapted retina were assessed. In the second, the recovery of the rod photoreceptor from a bright, rhodopsin-bleaching stimulus was assessed. […]
In the second set of experiments, performed on cohorts (n=22), the recovery of the dark current was assessed from a 30 second light exposure estimated to bleach […] of rhodopsin. […] Following the bleaching exposure, the response to the PF was assessed at two minute intervals for 40-50 minutes. […]

[4] = tested on: rats with oxygen-induced retinopathy (OIR); test: Arteriolar tortuosity from fundus images analysed with RISA in OIR rats (Example 2); assay type: in vivo, rat (Sprague-Dawley)
Protocol: as §1
To assess whether VCM treatment affected the retinal vasculature, wide-field images of the ocular fundus were obtained that show the major vessels of the retina following each ERG session. […] The arterioles were analyzed with RISA (R. Gelman, M. E. Invest Ophthalmol Vis Sci (2005) 46: 4734) custom image analysis software. In agreement with previous reports (J. D. Akula, Invest Ophthalmol Vis Sci (2007) 48:4351; K. Liu, et al., Invest Ophthalmol Vis Sci (2006) 47:2639), the venules were little affected by the induction of retinopathy. […] For each rat, the mean blood vessel integrated curvature across both eyes (median 10 arterioles) was determined to provide a measure of arteriolar tortuosity, TA (radians*pixel^−1), a measure which agrees well with subjective assessments in human subjects (R. Gelman, M. E. Invest Ophthalmol Vis Sci (2005) 46: 4734). […] To test this, the value of TA at P20 was subtracted from the value of TA at P60 in each rat to determine the change in arteriolar tortuosity during the course of the experiment.

[5] = tested on: visual cycle; settings: mouse, dose 6 mg/kg; cited from earlier work
[6] = OIR rats, 6 mg/kg IP for 15 days from P7, ERG at P20-22, vs vehicle

Question: With `CC(=O)NC/C=C(C)/C=C/C=C(C)/C=C/C1=C(C)CCCC1(C)C` [N-Retinylacetamide, N-Retinylacetamide (all trans)] as the compound, how does the “serious, negative alteration of the photoreceptor response” value ([1]; OIR rats after treatment, 6 mg/kg IP) read?
Answer: no evidence of serious, negative alteration

Question: What about the “effect on responses originating in the inner retina” value ([1]; OIR rats, 6 mg/kg IP) of the same compound?
Answer: favorable effect

Question: What about the “amplification constant of phototransduction” value [1, 6] of the same compound?
Answer: Neither the maximal rod response nor the amplification constant of phototransduction were significantly changed

Question: What about the maximal rod response [1, 6] of the same compound?
Answer: Neither the maximal rod response nor the amplification constant of phototransduction were significantly changed

Question: What about the “post-receptor sensitivity (log s)” value ([1]; OIR rats, 6 mg/kg IP, P20-22, vs vehicle) of the same compound?
Answer: unchanged

Question: What about the “OFF response to a 400 ms stimulus” value ([1]; background that suppressed the saturating a-wave by ~90%, drug-treated vs vehicle-treated OIR rats, P20-22) of the same compound?
Answer: 2 ×

Question: What about the “time-constant of deactivation of phototransduction” value ([1]; double-flash protocol, OIR rats, 6 mg/kg IP, P20-22, vs vehicle) of the same compound?
Answer: significantly shorter

Question: What about the “maximal scotopic b-wave amplitude” value ([1]; drug-treated vs vehicle-treated OIR rats, 6 mg/kg IP, P20-22) of the same compound?
Answer: twice as large

Question: And the “cone-driven response to 20 Hz flicker” value ([1]; same background, drug-treated vs vehicle-treated OIR rats, P20-22)?
Answer: 2 ×

Question: What about the “unfavorable effects of rod function” value ([2]; 6 mg/kg IP) of the same compound?
Answer: No unfavorable effects

Question: What about the “rod response sensitivity (S)” value ([2]; 6 mg/kg IP two weeks from P7, tests P20-22, P30-32, P60-62, ANOVA vs vehicle, listed as VCM, 6 mg/kg) of the same compound?
Answer: no statistically significant effect; also recorded: not significant, but did trend lower at every age

Question: What about the “magnitude of the rod response (Rmp3)” value ([2]; 6 mg/kg IP, listed as Ret-NH2, 6 mg/kg) of the same compound?
Answer: larger

Question: And the “magnitude of the rod response (Rmp3)” value ([2]; 6 mg/kg IP, listed as VCM, 6 mg/kg)?
Answer: significantly increased

Question: What about the “post-receptor sensitivity (log σ)” value ([2]; ERG b-wave, Naka-Rushton fit, 6 mg/kg IP, vs vehicle) of the same compound?
Answer: not affected

Question: And the “saturated amplitude of the b-wave (Vm)” value ([2]; ERG b-wave, Naka-Rushton fit, 6 mg/kg IP, vs vehicle, listed as Ret-NH2, 6 mg/kg)?
Answer: larger

Question: What about the “saturated amplitude of the b-wave (Vm)” value ([2]; ERG b-wave, Naka-Rushton fit, 6 mg/kg IP, vs vehicle, listed as VCM, 6 mg/kg) of the same compound?
Answer: significantly (p<0.01) increased

Question: And the “rod-mediated retinal function (photoreceptor and post-receptor neurons)” value ([2]; P20-22 and P30-32)?
Answer: improved at the earliest test age (P20-22), and even more markedly improved at the second (P30-32)

Question: And the “recovery from phototransduction, latency to 50% recovery τ” value ([2]; 6 mg/kg IP, vs vehicle, listed as Ret-NH2, 6 mg/kg)?
Answer: faster recovery

Question: And the “recovery from phototransduction, latency to 50% recovery τ” value ([2]; 6 mg/kg IP, vs vehicle, listed as VCM, 6 mg/kg)?
Answer: significantly (p<0.01) faster

Question: And the “effect on rod function” value ([2]; summary of ERG data)?
Answer: advantageous, if transient, effect

Question: What about the post-receptor function ([2]; summary of ERG data) of the same compound?
Answer: transient enhancement

Question: What about the “time to 50% recovery of the saturating rod photo-response after bleach (t50)” value [3] of the same compound?
Answer: not significantly altered overall

Question: And the “arteriolar tortuosity TA, main effect” value ([4]; OIR rats, 6 mg/kg IP, P20-22 to P60-62, vs vehicle)?
Answer: no main effect

Question: What about the “appearance of vascular abnormalities” value ([4]; OIR rats, VCM regimen 6 mg/kg IP) of the same compound?
Answer: did not prevent the appearance of vascular abnormalities

Question: What about the “change in arteriolar tortuosity ΔP60-P20 (vascular recovery)” value ([4]; TA at P60 minus TA at P20, t-test p=0.001) of the same compound?
Answer: more than twice the normal amount

Question: And the “recovery of arteriolar tortuosity TA” value ([4]; group x age interaction p=0.002, VCM vs vehicle treated rats)?
Answer: recovered more rapidly

Question: And the “suppression of the visual cycle” value [5]?
Answer: approximately 50%
